Measurements published in US20190328691A1, “ANTIBIOTIC THERAPY” (Boulos & Cooper Pharmaceuticals Pty Ltd, priority 2015, published 2019).
Like-named read-outs stand apart in the source and are kept apart here.

Legend:
[1] = tested on: Staphylococcus aureus (BAA-1717); test: Checkerboard combination / MIC assay with S. aureus BAA-1717 (MRSA); assay type: cell-based; details: for Effect of individual antibiotic combinations: S. aureus BAA-1717
Experimental: (§1) Colonies were suspended in PBS. The absorbance of each suspension was measured with a spectrophotometer, and then the suspension was adjusted to 1×10^6 CFU/mL. The testing inoculum was prepared within 20 minutes before adding to wells of the test plate. Final cellular density in the checkerboard assays was 5×10^5 CFU/mL.
(§2) The combination effect of antibacterial substances administered together was evaluated by an in vitro checkerboard combination method with Staphylococcus aureus (ATCC 29213) and Staphylococcus aureus (BAA-1717). Ramizol and Chlopam were tested alone in 11 points by two-fold serial titration and in combination with different commercial antibiotics which were tested in a 7-point titration alone and in combination with Ramizol and Chlopam using the checkerboard technique as recommended by the Clinical & Laboratory Standards Institute (CLSI. Methods for Dilution In Antimicrobial Susceptibility Tests for Bacteria That Grow Aerobically; Approved Standard-Eighth Edition. CLSI document M07-A8 (ISBN 1-56238-689-1). Vol. 29 No. 2. Clinical and Laboratory Standards Institute, USA, 2009). The commercial antibiotics were also tested alone. Twenty-four checkerboard tests were performed.
(§3) The starting concentration of Ramizol, Chlopam, and the commercial antibiotics was four fold of the MIC. The testing range for each combination was described in the following summary tables.
(§4) Compound dilutions of Ramizol and Chlopam were performed in 100% DMSO and the final DMSO concentration in all test wells was 2%. Growth control wells also included 2% DMSO. CLSI protocol was followed for medium, inoculum preparation, and endpoint reading. The commercial antibiotics were dissolved and diluted in the CLSI specified diluent. The final inoculum count for each strain was 5×10^5 CFU/mL.
Each test substance was dissolved and diluted in 100% DMSO or specified solvent. Each test substance dilution (2 μL) was added to 96 μL broth CAMHB. CAMHB seeded with S. aureus BAA-1717 at 1×10^6 CFU/mL (100 μL) was then added to the plate to generate a final cell count at 5×10^5 CFU/mL.
(§5) Assay plates were incubated and MIC endpoints were read as described in the MIC assay. FIC (Fraction Inhibitory Concentration) and FIC Index (FICI) values for each test condition and the average of FICI values of all pairwise combinations were calculated to determine if synergy or antagonism existed between the two substances. The FIC index was determined by calculating the sum of the ratios of MICs for both substances. Arithmetically, the FIC Index of a combination of Substance 1 and Substance 2 was defined as following: FICI=Σ[FIC(Substance 1)+FIC(Substance 2)]=[(MIC of Substance 1 in combination/MIC of Substance 1 alone)+(MIC of Substance 2 in combination/MIC of Substance 2 alone)]. Synergy is defined as the FICI (Σ)≤0.5; additivity as FICI (Σ)>0.5 to ≤1; indifference as FICI (Σ)>1 to ≤4; antagonism is defined as the FICI (Σ)>4 (Zinner and Blaser, J. Journal of Antimicrobial Chemotherapy (1986), 17, 1-5; Amin, et al BMC Complementary & Alternative Medicine (2015), 15, 59; Zuo, et al. Molecules (2011), 16, 9819-9826).

[2] = tested on: Staphylococcus aureus (ATCC 29213); test: Checkerboard combination / MIC assay with S. aureus ATCC 29213; assay type: cell-based; details: S. aureus ATCC 29213; for MIC: Staphylococcus aureus, read-out: MIC of antibiotic alone
Experimental: as §1, §2, §3, §4
Cefepime, Daptomycin, Linezolid, Mupirocin, Oxacillin and Vancomycin were also tested alone. Each test substance was dissolved and diluted in 100% DMSO or specified solvent. Each test substance dilution (2 μL) was added to 96 μL broth CAMHB. CAMHB seeded with S. aureus ATCC 29213 at 1×10^6 CFU/mL (100 μL) was then added to the plate to generate a final cell count at 5×10^5 CFU/mL.
as §5

CCCCCCCCCC(=O)N[C@@H](Cc1c[nH]c2ccccc12)C(=O)N[C@H](CC(N)=O)C(=O)N[C@@H](CC(=O)O)C(=O)N[C@@H]1C(=O)NCC(=O)N[C@@H](CCCN)C(=O)N[C@@H](CC(=O)O)C(=O)N[C@H](C)C(=O)N[C@@H](CC(=O)O)C(=O)NCC(=O)N[C@H](CO)C(=O)N[C@@H]([C@H](C)CC(=O)O)C(=O)N[C@@H](CC(=O)c2ccccc2N)C(=O)O[C@@H]1C [Daptomycin]
FICI of combination with Chlopam ([1]; Chlopam 0.001953 μg/mL + labelled antibiotic at MIC of same cell, S. aureus ATCC BAA-1717): 1.0
MIC of antibiotic in combination with Chlopam ([1]; Chlopam 0.001953 μg/mL, S. aureus ATCC BAA-1717): 0.5 µg/mL
FICI of combination with Chlopam ([1]; Chlopam 0.003906 μg/mL + labelled antibiotic at MIC of same cell, S. aureus ATCC BAA-1717): 1.0
MIC of antibiotic in combination with Chlopam ([1]; Chlopam 0.003906 μg/mL, S. aureus ATCC BAA-1717): 0.5 µg/mL
FICI of combination with Chlopam ([1]; Chlopam 0.0078125 μg/mL + labelled antibiotic at MIC of same cell, S. aureus ATCC BAA-1717): 1.0
MIC of antibiotic in combination with Chlopam ([1]; Chlopam 0.0078125 μg/mL, S. aureus ATCC BAA-1717): 0.5 µg/mL
FICI of combination with Chlopam ([1]; Chlopam 0.015625 μg/mL + labelled antibiotic at MIC of same cell, S. aureus ATCC BAA-1717): 1.0
MIC of antibiotic in combination with Chlopam ([1]; Chlopam 0.015625 μg/mL, S. aureus ATCC BAA-1717): 0.5 µg/mL
FICI of combination with Chlopam ([1]; Chlopam 0.5 μg/mL + labelled antibiotic at MIC of same line, S. aureus ATCC BAA-1717): 1.0
MIC of antibiotic in combination with Chlopam ([1]; Chlopam 0.5 μg/mL, S. aureus ATCC BAA-1717): 0.016 µg/mL
Effect of individual antibiotic combinations ([1]; Chlopam and daptomycin: 0.001953 and 0.5, 0.003901 and 0.5, 0.0078125 and 0.5, 0.015625 and 0.5, 0.5 and 0.016 μg/mL): additive effect
FICI of combination with Ramizol ([1]; Ramizol 0.015625 μg/mL + labelled antibiotic at MIC of same cell, S. aureus ATCC BAA-1717): 1.0
MIC of antibiotic in combination with Ramizol ([1]; Ramizol 0.015625 μg/mL, S. aureus ATCC BAA-1717): 0.5 µg/mL
FICI of combination with Ramizol ([1]; Ramizol 0.03125 μg/mL + labelled antibiotic at MIC of same cell, S. aureus ATCC BAA-1717): 1.0
MIC of antibiotic in combination with Ramizol ([1]; Ramizol 0.03125 μg/mL, S. aureus ATCC BAA-1717): 0.5 µg/mL
FICI of combination with Ramizol ([1]; Ramizol 0.0625 μg/mL + labelled antibiotic at MIC of same cell, S. aureus ATCC BAA-1717): 1.0
MIC of antibiotic in combination with Ramizol ([1]; Ramizol 0.0625 μg/mL, S. aureus ATCC BAA-1717): 0.5 µg/mL
FICI of combination with Ramizol ([1]; Ramizol 0.125 μg/mL + labelled antibiotic at MIC of same line, S. aureus ATCC BAA-1717): 1.0
MIC of antibiotic in combination with Ramizol ([1]; Ramizol 0.125 μg/mL, S. aureus ATCC BAA-1717): 0.5 µg/mL
FICI of combination with Ramizol ([1]; Ramizol 2 μg/mL + labelled antibiotic at MIC of same line, S. aureus ATCC BAA-1717): 1.0
MIC of antibiotic in combination with Ramizol ([1]; Ramizol 2 μg/mL, S. aureus ATCC BAA-1717): 0.25 µg/mL
FICI of combination with Ramizol ([1]; Ramizol 4 μg/mL + labelled antibiotic at MIC of same cell, S. aureus ATCC BAA-1717): 1.0
MIC of antibiotic in combination with Ramizol ([1]; Ramizol 4 μg/mL, S. aureus ATCC BAA-1717): 0.016 µg/mL
Effect of individual antibiotic combinations ([1]; Ramizol and daptomycin: 0.015625 and 0.5, 0.03125 and 0.5, 0.0625 and 0.5, 0.125 and 0.5, 2 and 0.25, 4 and 0.016 μg/mL): additive effect
MIC ([1]; Staphylococcus aureus, ATCC BAA-1717 / BAA-1717, Table 4, checkerboard series with Chlopam, S. aureus ATCC BAA-1717, read-out: MIC of antibiotic alone): 0.5 µg/mL
MIC of antibiotic alone ([1]; Table 7, checkerboard series with Ramizol, S. aureus ATCC BAA-1717): 0.5 µg/mL
mean FICI of combination with Chlopam ([1]; labelled antibiotic + Chlopam, mean of all pairwise combinations, S. aureus ATCC BAA-1717): 1.2
mean FICI of combination with Ramizol ([1]; labelled antibiotic + Ramizol, mean of all pairwise combinations, S. aureus ATCC BAA-1717): 1.1
FICI of combination with Chlopam ([2]; Chlopam 0.003906 μg/mL + labelled antibiotic at MIC of same cell): 1.0
MIC of antibiotic in combination with Chlopam ([2]; Chlopam 0.003906 μg/mL): 0.5 µg/mL
FICI of combination with Chlopam ([2]; Chlopam 0.0078125 μg/mL + labelled antibiotic at MIC of same cell): 1.0
MIC of antibiotic in combination with Chlopam ([2]; Chlopam 0.0078125 μg/mL): 0.5 µg/mL
FICI of combination with Chlopam ([2]; Chlopam 0.015625 μg/mL + labelled antibiotic at MIC of same cell): 1.0
MIC of antibiotic in combination with Chlopam ([2]; Chlopam 0.015625 μg/mL): 0.5 µg/mL
FICI of combination with Chlopam ([2]; Chlopam 0.25 μg/mL + labelled antibiotic at MIC of same cell): 1.0
MIC of antibiotic in combination with Chlopam ([2]; Chlopam 0.25 μg/mL): 0.25 µg/mL
FICI of combination with Chlopam ([2]; Chlopam 0.5 μg/mL + labelled antibiotic at MIC of same cell): 1.0
MIC of antibiotic in combination with Chlopam ([2]; Chlopam 0.5 μg/mL): 0.016 µg/mL
Effect of individual antibiotic combinations ([2]; Chlopam and daptomycin: 0.003901 and 0.5, 0.0078125 and 0.5, 0.015625 and 0.5, 0.25 and 0.25, 0.5 and 0.016 μg/mL): additive effect
FICI of combination with Ramizol ([2]; Ramizol 0.015625 μg/mL + labelled antibiotic at MIC of same cell): 1.0
MIC of antibiotic in combination with Ramizol ([2]; Ramizol 0.015625 μg/mL): 0.5 µg/mL
FICI of combination with Ramizol ([2]; Ramizol 0.03125 μg/mL + labelled antibiotic at MIC of same cell): 1.0
MIC of antibiotic in combination with Ramizol ([2]; Ramizol 0.03125 μg/mL): 0.5 µg/mL
FICI of combination with Ramizol ([2]; Ramizol 0.0625 μg/mL + labelled antibiotic at MIC of same cell): 1.0
MIC of antibiotic in combination with Ramizol ([2]; Ramizol 0.0625 μg/mL): 0.5 µg/mL
FICI of combination with Ramizol ([2]; Ramizol 0.125 μg/mL + labelled antibiotic at MIC of same cell): 1.0
MIC of antibiotic in combination with Ramizol ([2]; Ramizol 0.125 μg/mL): 0.5 µg/mL
FICI of combination with Ramizol ([2]; Ramizol 4 μg/mL + labelled antibiotic at MIC of same cell): 1.0
MIC of antibiotic in combination with Ramizol ([2]; Ramizol 4 μg/mL): 0.016 µg/mL
Effect of individual antibiotic combinations ([2]; Ramizol and daptomycin: 0.015625 and 0.5, 0.03125 and 0.5, 0.0625 and 0.5, 0.125 and 0.5, 2 and 0.25, 2 and 0.125, 2 and 0.063, 2 and 0.031, 4 and 0.016 μg/mL): additive effect
MIC ([2]; ATCC29213, Table 4, checkerboard series with Chlopam): 0.5 µg/mL
MIC ([2]; ATCC29213, Table 7, checkerboard series with Ramizol): 0.5 µg/mL
mean FICI of combination with Chlopam ([2]; labelled antibiotic + Chlopam, mean of all pairwise combinations): 1.1
Effect of the combinations with Ramizol (by mean FICI) ([2]; labelled antibiotic + Ramizol): additive effect
mean FICI of combination with Ramizol ([2]; labelled antibiotic + Ramizol, mean of all pairwise combinations): 1.0
